“Also recorded” adds a separate entry of the source.
How the values were obtained:
[1] = tested on: LPS induced airway inflammation in mice; test: First animal study: LPS-induced airway inflammation in mice, analysis of leukocytes in BALF; format: in vivo, C57BL/6 mice
Protocol: C57BL/6 mice were purchased from Bomholtgaard, Ry, Denmark. Animals were fed with standard chow and water ad libitum and allowed to acclimatize for at least 7 days in an accredited animal facility before use. In all experiments female mice of ages between 9-11 weeks were used. All experiments were approved by the local ethical committee for animal experiments in Umea, Sweden.
Bacterial endotoxin, LPS (Escherichia coli 0128:B12, Sigma, St. Louis, Mo.) was administered to anaesthetised mice (enflurane) by tracheal instillation in a total volume of 50 μl in a concentration of 5 μg. Control mice were given solvent alone (endotoxin-free distilled water). Through previous experiments the optimum concentration of LPS was determined to be 5 μg.
The mice were sacrificed by cervical dislocation 20 h after LPS instillation and their tracheae was cannulated with polyethylene tubing. Bronchoalveolar 20 lavage (BAL) was performed using 1-ml aliquots of ice-cold Hanks balanced salt solution to a recovered volume of 4 ml. Total number of leucocytes in bronchoalveolar lavage fluid (BALF) was counted using a Bürker chamber and trypan blue solution. Differential cell counts were determined on duplicate cytocentrifuged preparations stained with May-Grünewald Gemisa. Three 25 hundred cells were counted from each slide and the percentage of neutrophils determined.
Mice were treated with an experimental oligonucleotide (SEQ.ID.NO 3, in concentrations of 25 μg, 100 μg or 150 μg. The oligonucleotide was administrated by tracheal instillation to anaesthetised mice in a total volume of 50 μl 18 h prior to instillation of 5 μg LPS. Control mice received 50 μl endotoxin-free distilled water.
To compare the effect of the oligonucleotide to conventional treatment with anti-inflammatory corticosteroids, one group of mice received dexamethasone (Sigma St Louis, Mo.). Dexamethasone (10 mg/kg body weight) dissolved in PBS was 6(12) injected intraperitoneally (i.p) into mice 1 h prior LPS exposure. […]
The results are expressed as mean+standard error of the mean (SEM). […]

[2] = tested on: LPS-induced airway inflammation in mice; test: Third LPS induced asthma study in mice, BALF cell counts; format: in vivo; conditions: for influx of leukocytes in BALF compared to the control group / influx of neutrophils in BALF compared to the control group: 150 μg/animal, significance if the non-responding control individual is excluded; for influx of leukocytes in BALF compared to the control group: FIG. 7; for influx of neutrophils in BALF compared to the control group: FIG. 8; for number of infiltrating inflammatory cells in the BAL fluid: oligonucleotides 150 μg/animal tracheal 18 h prior to LPS, dexamethasone 5 mg/kg i.p. 1 h before, FIG. 6
Protocol: As with examples 1 and 2, aim of the study was to examine the pharmaceutical effects of SEQ. ID. NO. 3 using airway inflammation as disease endpoint, and to compare the efficacy with that of corticosteroids. In addition, a number of control oligonucleotides were included being SEQ.ID.NO 4, and SEQ.ID.NO 7. The induction of LPS induced asthma and the protocol of analyses was conducted as described in Example 2.
Briefly, LPS-induced airway inflammation in mice was treated with SEQ.ID.NOs 3, 4 and 7 (150 μg/animal) administered by tracheal instillation 18 h prior to challenge with 5 μg LPS. The untreated group represents healthy individuals and mice in the control group were given solvent only (H2O+LPS). The control treatment of dexamethasone (5 mg/kg, i.p.) was given one hour before LPS instillation. Analysis of BAL fluid was performed 20 hours after LPS instillation. The total number of leukocytes and neutrophils in BAL fluid is shown. Data expressed as mean±SD (n=6). ***p<0.001, *p<0.05, using One-way ANOVA with Dunnett's post hoc corrections versus control group.

murine spleen cells [3] = test: Induction of IL-10 from murine spleen cells (ELISpot); format: cell-based; conditions: mouse splenocytes, 48 hours incubation; for induction of IL-10 (positive spots per well): FIG. 9
Protocol: (§1) The spleen was excised from a test animal. A single cell suspension was prepared using a nylon cell strainer (100 μm). The cells were washed once in complete RPMI medium at 1200 rpm for 7-10 minutes, whereupon the supernatant was poured off and the cells resuspended. 1 ml of “red blood cell lysing buffer” was added, and the mixture incubated for 1-2 minutes at RT. 5 ml of complete RPMI was added and the mixture centrifuged as above (C2).
(§2) The supernatant was poured off, the pellet resuspended and another 5 ml of complete RPML added. The cells were counted by dilution in trypan blue, so that between 50-100 cells were counted in the area.
(§3) Approximately 500,000 mouse splenocyte cells per well were incubated for 48 hours in the presence of the different oligonucleotides at the concentrations indicated. Specifically, SEQ.ID.NO 3, SEQ.ID.NO 4, and SEQ.ID.NO 7. Following incubation the wells were developed according to the kit suppliers recommendations and the average number of positive spots per well were determined using a AID ELISpot reader system, (Strassberg Germany).
(§4) Elispot assays where performed according to the manufactures recommended guidelines (MabTech) and the plates were analyzed using an AID ELISpot reader system (Autoimmun Diagnostika GmbH, Strassberg, Germany).

[4] = tested on: LPS induced airway inflammation in mice; test: Second LPS induced asthma study in mice, BALF cell counts; format: in vivo; conditions: single dose 150 ug tracheal instillation 18 h prior to LPS; BALF 20 h; p=0.005
Protocol: As with example 2, aim of the study was to examine the pharmaceutical effects of SEQ. ID. NO. 3 using airway inflammation as disease endpoint, and to compare the efficacy with that of corticosteroids. This study included larger numbers of animals per group to increases statistical significance. The induction of LPS induced asthma and the protocol of analyses was conducted as described in example 2.
Briefly, mice were treated with an SEQ.ID.NO 3 (150 μg/animal) administered by tracheal instillation 18 h prior to challenge with 5 μg LPS. One group of mice represented healthy untreated individuals. Control mice were given solvent only (H2O) and LPS. One group received dexamethasone (5 mg/kg) one hour before LPS instillation and one group were given a combination treatment. Analysis of BALF was performed 20 hours after the last treatment. Total number of cells in BALF and number of neutrophils is shown. Data is expressed as mean±SD. ***=p<0.001 and **=p<0.01, in treated groups vs the control group (one-way ANOVA and Bonferroni post hoc test). Calculations were performed by SPSS software (12.0). n=6 in all groups.

murine spleen cells [5] = test: Induction of IFN-gamma from murine spleen cells (ELISpot); format: cell-based; conditions: mouse splenocytes, 48 hours incubation, FIG. 10
Protocol: as §1, §2, §3
Regarding the production of IFN-gamma, mouse splenocytes were treated as described above, with the intention to monitor levels of IFN-gamma by Elispot asssy. Identical conditions and concentrations of oligonucleotides where used.
as §4

human PBMC [6] = test: Induction of IFN-gamma from healthy human PBMC (ELISpot); format: cell-based; conditions: PBMC from 7 healthy individuals, 48 hours, FIG. 12
Protocol: (§5) Whole blood was obtained from healthy blood donors. PBMCs were prepared from 30 ml whole blood according to the following protocol:
(§6) 30 ml blood was transferred directly into heparinized tubes. All blood was transferred into one 50 ml Falcon tube and PBS added up to 50 ml. 15 ml Ficoll (17-1440-03, obtained from Amersham Bioscience AB, Uppsala) was then added into two falcon tubes (50 ml). The PBS-treated blood was then carefully added on the top of to Ficoll, 25 ml to each tube. The tubes were then centrifuged 25 min at 1700 RPM at RT (20° C.).
RPMIc medium was prepared under sterile conditions, using a 0.22 uM filter. (RPMIc denotes a RPMI 1640 culture medium (R0883, Sigma) supplemented with 5% heat-inactivated (56° C.,1 h) FCS 1.5 mM L-glutamine (G7513, Sigma), 100 U/ml penicillin and 100 ug/ml streptomycin, PEST (P0781, Sigma), hepes (H0887, Sigma), and gentamycin (G1272, Sigma)). […]
The cells were counted and left in PBS, then centrifuged at 1200 RPM, 10 min. Medium was then added to obtain the concentration of interest, and the cells counted (16 squares)×3. The mean value was calculated and multiplied with the dilution factor×10^4=cells/ml. […]
Elispot assays where performed according to the manufactures recommended guidelines (MabTech) and the plates were analyzed using an AID ELISpot reader system (Autoimmun Diagnostika GmbH, Strassberg, Germany). […]

human PBMC [7] = test: Induction of IL-10 from healthy human PBMC (ELISpot); format: cell-based; conditions: PBMC from 5 healthy individuals, 48 hours; for induction of IL-10 producing cells: FIG. 11
Protocol: as §5, §6
(§7) RPMIc medium was prepared under sterile conditions, using a 0.22 uM filter. (RPMIc denotes a RPMI 1640 culture medium (R0883, Sigma) supplemented with 5% heat-inactivated (56° C.,1 h) FCS 1.5 mM L-glutamine (G7513, Sigma), 100 U/ml penicillin and 100 ug/ml streptomycin, PEST (P0781, Sigma), hepes (H0887, Sigma), and gentamycin (G1272, Sigma)).
(§8) The interphase was carefully pipetted from the two tubes into 2x 50mi Falcon tubes. PBS was added up to 50 ml in each tube, and the tubes centrifuged for 10 min at 1700 RPM (4° C.).
(§9) The supernatant was discarded, and PBS added to 30 ml, whereupon the tubes were centrifuged at 10 min at 1500 RPM (4° C.). Again, the supernatant was discarded, 10 ml PBS added, and the pellets from the two falcon tubes pooled.
(§10) The cells were counted and left in PBS, then centrifuged at 1200 RPM, 10 min. Medium was then added to obtain the concentration of interest, and the cells counted (16 squares)×3. The mean value was calculated and multiplied with the dilution factor×10^4=cells/ml. Diluting the cells to 10 million/ml will result in 500.000 cells/50 ul medium, 6 million/ml will be 300.000/50 ul medium.
as §4
Approximately 500,000 PBMC cells per well, derived from blood from healthy human donors, were incubated for 48 hours in the presence of the different oligonucleotides. Specifically, SEQ.ID.NO 1, SEQ.ID.NO 2, SEQ.ID.NO 6 and SEQ.ID.NO 8. Following incubation, the wells were developed according to the kit supplier's recommendations and the average number of positive cells producing IL-10 per well were counted using an AID ELISpot reader system, (Autoimmun Diagnostika GmbH, Strassberg, Germany).

human PBMC [8] = test: Induction of IFN-alpha from healthy human PBMC (ELISpot); format: cell-based; conditions: PBMC from 10 healthy individuals, 48 hours; for induction of IFN-alpha producing cells: FIG. 13
Protocol: as §5, §6, §7, §8, §9, §10, §4
For this assay again 500,000 PBMC cells per well, derived from healthy human blood were incubated for 48 hours in the presence of the different oligonucleotides. Specifically, SEQ.ID.NO 1, SEQ.ID.NO 2, and SEQ.ID.NO 8. Following incubation, the wells were developed according to the kit suppliers recommendations and the average number of positive cells producing IFN-alpha per well were determined using an AID ELISpot reader.

## 5′-G*A*A*ACAGATCGTCCAT*G*G*T-3′ (antisense GAAACAGATCGTCCATGGT; listed as DNA, chemistry not fully specified) [SEQ.ID.NO 3, (Mu p65)AS, CpG-containing ODN]
[1]; 150 μg by tracheal instillation 18 h prior to LPS, BALF 20 h after LPS
  reduction in the number of recovered neutrophils in BAL: more than 50%
[1]; 150 μg intratracheal vs dexamethasone 10 mg/kg i.p. 1 h prior to LPS
  anti-inflammatory effect compared with dexamethasone: at least as powerful as high-dose treatment with dexamethasone
[1]; 25, 100 or 150 μg by tracheal instillation 18 h prior to 5 μg LPS, BALF 20 h after LPS
  neutrophils in BALF / neutrophilic response in the airways: dose-dependent reduction; also recorded: significantly reduced neutrophilic response
[2]
  influx of leukocytes in BALF compared to the control group: significantly reduced inflammatory response
  influx of neutrophils in BALF compared to the control group: significantly reduced inflammatory response
  number of infiltrating inflammatory cells in the BAL fluid: reduced numbers of infiltrating inflammatory cells
Murine spleen cells [3]
  concentration at which IL-10 producing cells are first induced: 5 µM
  induction of IL-10 (positive spots per well): induce significant levels of IL-10
[4]
  reduction in BAL fluid cell number verses control: approximately 50%
Murine spleen cells [5]
  induction of IFN-gamma compared to medium alone: capable of inducing significant levels of IFN-gamma

## 5′-G*A*A*ACAGATGCTCCAT*G*G*T-3′ (antisense GAAACAGATGCTCCATGGT; listed as DNA, chemistry not fully specified) [SEQ.ID.NO 4, (Mu p65 rev)AS]
[2]
  influx of leukocytes in BALF compared to the control group: no effect
  influx of neutrophils in BALF compared to the control group: no effect
  number of infiltrating inflammatory cells in the BAL fluid: little effect
Murine spleen cells [3]
  induction of IL-10 (positive spots per well): no induction
Murine spleen cells [5]
  induction of IFN-gamma compared to medium alone: no such inducing potential

## 5′-G*G*A*ACAGTTGCTCCAT*G*G*C-3′ (antisense GGAACAGTTGCTCCATGGC; listed as DNA, chemistry not fully specified) [SEQ.ID.NO 2, (Hu p65 rev)AS]
Human PBMC [6]
  induction of IFN-gamma producing cells versus background: background level is not exceeded
Human PBMC [7]
  concentration from which IL-10 producing cells are induced: around 100 uM
  induction of IL-10 producing cells: failed to induce IL-10
Human PBMC [8]
  induction of IFN-alpha producing cells: fails to induce any measurable levels of IFN-alpha

## 5′-G*G*T GCA TCG ATG CAG*G*G*G*G*G-3′ (GGTGCATCGATGCAGGGGGG; listed as DNA, chemistry not fully specified) [SEQ.ID.NO 6]
Human PBMC [7]
  induction of IL-10 producing cells: strong potential to induce IL-10

## 5′-T*C*C*A*T*G*A*C*G*T*T*C*C*T*G*A*C*G*T*T-3′ [SEQ.ID.NO 7]
[2]
  number of infiltrating inflammatory cells in the BAL fluid: more dramatic level of inhibition being as effective as dexamethasone
Murine spleen cells [3]
  concentration at which IL-10 producing cells are first induced: 0.1 µM
  induction of IL-10 (positive spots per well): induce significant levels of IL-10
Murine spleen cells [5]
  induction of IFN-gamma compared to medium alone: capable of inducing significant levels of IFN-gamma

## 5′-T*C*G*T*C*G*T*T*T*T*G*T*C*G*T*T*T*T*G*T*C*G*T*T-3′ [SEQ.ID.NO 8]
Human PBMC [7]
  induction of IL-10 producing cells: strong potential to induce IL-10
Human PBMC [8]
  concentration at which induction of IFN-alpha starts / is apparent: 0.1 µM
  induction of IFN-alpha producing cells: strong potential to induce IFN-alpha
